These results are taken from patent US11672795B2, “Compositions and methods for treating pulmonary vascular disease” (UNIVERSITY OF PITTSBURGH-OF THE COMMONWEALTH SYSTEM OF …, priority 2016, dated 2023).

In the test the test system is GLS1. Briefly: Targeted LC-MS/MS of intracellular metabolites in PAECs on soft or stiff matrix with GLS inhibitors. The test is classed as cell-based, human. As to conditions: stiff matrix, BPTES 10 μM, DON 5 μM, C968 10 μM. As to the method:
HEK293T cells (American Type Culture Collection) were cultivated in DMEM containing 10% fetal bovine serum (FBS). Primary human pulmonary arterial endothelial cells (PAECs) were grown in EGM-2 cell culture media (Lonza), and experiments were performed at passages 3 to 6. Primary human pulmonary arterial smooth muscle cells (PASMCs) were cultured in SmGM-2 cell culture media (Lonza), and experiments were performed at passages 3 to 9. Inhibitors of GLS1 (2, 3): BPTES (Bis-2-(5-phenylacetamido-1,3,4-thiadiazol-2-yl)ethyl sulphide), DON (6-Diazo-5-oxo-L-norleucine), and C968 (Glutaminase Inhibitor, Compound 968, 5-(3-Bromo-4-(dimethylamino)phenyl)-2,2-dimethyl-2,3,5,6-tetrahydrobenzo[a]phenanthridin-4(1H)-one) were purchased from Sigma-Aldrich and used at concentration of 10 μM, 5 μM and 10 μM respectively. Glutamate was purchased from Sigma Aldrich and used at concentration of 2 mM. Aspartate was purchased from Sigma Aldrich and used at concentration of 10 mM.
Metabolite extraction was performed essentially as described with minor modifications (35). Briefly, metabolites were extracted from cultured cells and CD31+ cells on dry ice using 80% aqueous methanol pre-cooled at −80° C. Metabolites were extracted from plasma pre-cleared by centrifugation at 20,000×g for 10 min at 4° C. Supernatants were extracted with four volumes of 100% methanol pre-cooled at −80° C. for four hours at −80° C. An internal standard, [^13C4]-2-oxoglutarate (Cambridge Isotope Laboratories) was added during metabolite extraction. Insoluble material from both cell and plasma extractions was removed by centrifugation at 20,000×g for 15 min at 4° C. The supernatant was analysed by targeted LC-MS/MS as previously described (36). Metabolites were separated using a ZIC-HILIC stationary phase (150 mm×2.1 mm×[…]; Merck). The MS parameters were optimized using a glutamine standard solution. Monitored mass transitions were 87>87 (pyruvate), 115>73+99 (succinate), 132>88 (aspartate), 145>101 (20G), […] (glutamine), 146>128 (glutamate), and 149>105 ([^13C4]-20G). Mass transitions and retention time windows were confirmed by the analysis of neat and matrix-spiked standards. Peak areas were quantified by Xcalibur Software (Thermo) and manually reviewed.
To determine whether GLS1 is critical for stiffness-induced and YAP/TAZ-dependent glutaminolysis, PAECs were cultivated in soft or stiff matrix, and exposed to known inhibitors of two isoforms of GLS1 (KGA and GAC), BPTES (Bis-2-(5-phenylacetamido-1,3,4-thiadiazol-2-yl)ethyl sulphide), DON (6-Diazo-5-oxo-L-norleucine), or CB-968 (glutaminase inhibitor, compound 968, C-968) (FIG. 3A-C) or siRNA (si-GLS; FIG. 3D-G). As quantified by LC-MS/MS, inhibition of GLS in PAECs blunted the stiffness-induced processes of glutamine consumption, glutamate production, and aspartate production (FIGS. 3A and E). […] Similar alterations of metabolic activity were observed when inhibiting GLS1 in PASMCs (data not shown).

Consider `CN(C)c1ccc(C2Nc3ccc4ccccc4c3C3=C2C(=O)CC(C)(C)C3)cc1Br` (centres unmarked) [C968, 5-(3-Bromo-4-(dimethylamino)phenyl)-2,2-dimethyl-2,3,5,6-tetrahydrobenzo[a]phenanthridin-4(1H)-one], for which the “alterations of metabolite expression in stiff matrix (stiffness-induced glutamine consumption, glutamate production, aspartate production)” value is “blunted” and the “lactate/pyruvate ratio (glycolysis)” value is listed as “decreased”.
